Values belong to the compound of their own block, whether it stands above or below them.
Tests used:
[1] = test system: Sprague Dawley rat; experiment: Hemodynamic and contractile indices in anesthetized rat, epicardial alginate patch vs IV infusion; assay type: in vivo; details: for systemic vascular resistance: FIG. 5
Method: A Sprague Dawley rat was anesthetized with pentobarbital and catheters were placed in the right internal jugular vein and right femoral artery for continuous pressure measurement and IV access. An arteriotomy in the right carotid artery allowed passage of a Millar (Houston, Tex.) conductance pressure-volume catheter across the aortic valve and into the left ventricle. This catheter allows measurement of indices of myocardial contractile function. A tracheotomy was performed and the animal ventilated prior to sternotomy and chest retraction.
A pericardial drug releasing platform was made from a calcium crosslinked alginate disk (6.5 mm diameter) and placed on top of the left ventricle. Dobutamine was then applied to the drug release platform for pericardial inotropic treatments. […]

[2] = test system: Hannaford swine; experiment: Hemodynamic measurements in anesthetized swine, epicardial patch vs pericardial catheter vs IV; assay type: in vivo
Method: Hannaford swine (15-25 weeks old, 45-60 kg) were fasted overnight but given full access to water. Telazol (2 mg/kg IM at a ratio of zolazepam:tiletamine of 1:1) was given IM for sedation. Anesthesia was induced with inhaled isoflurane 2% prior to tracheal intubation (9.0 cuffed). A 22 gauge peripheral IV was inserted into an ear vein for drug administration and volume resuscitation (Ringer's lactate 4 ml/kg/hr). Anesthesia was maintained during surgical preparation with isoflurane 2% in oxygen. Respiratory rate was be fixed to 10 breaths per minute and the tidal volume adjusted between 6 and 10 ml/kg to maintain expired end-tidal carbon dioxide between 35 and 40 mmHg. Inhaled isoflurane was discontinued after surgical preparation, and balanced total intravenous anesthesia was initiated with pentobarbital (10 mg/kg/hr) and pancuronium (0.5 mcg/kg/hr) prior to experimentation.
Vascular access introducer sheaths (7 FR) were placed in a femoral vein, the right internal jugular vein and both femoral arteries using a Seldinger technique under ultrasound guidance. A balloon tipped pulmonary artery catheter was inserted through the right internal jugular venous sheath and into the pulmonary artery to allow measurement of central venous pressure (CVP), pulmonary artery pressures, and thermodilution cardiac output. Heparin 5000 units was given to keep activated clotting time above 250 seconds. A pig-tail Millar conductance catheter was advanced retrograde across the aortic valve from the right femoral arterial sheath, and allows instantaneous recordings of the pressure and volume within the left ventricle. Following midline sternotomy the pericardium was retracted. Excess Ringer's lactate solution was given to replace blood losses and maintain CVP greater than 8 mm Hg. Continuous hemodynamic measurements were taken including heart rate (HR), mean arterial pressure (MAP), central venous pressure (CVP), contractility (max dP/dt), systemic vascular resistance (SVR), stroke volume (SV), cardiac output (CO) and stroke work (SW).
A pericardial drug releasing platform was constructed from 2 calcium crosslinked alginate disks which were sealed around the edges with GluStitch and formed a bladder for pericardial drug. A catheter was placed into the bladder formed by the two disks and allowed continuous infusion of inotropic drug into the pericardial fluid. This device spread drug over the surface of the heart at a controllable rate of delivery. In another experiment, dobutamine was introduced into the pericardial sac through a catheter without the use of the patch.
In yet another experiment, dobutamine was introduced intravenously.

[3] = Plasma dobutamine levels in arterial blood samples of swine; assay type: in vivo; details: FIG. 10
Description: Arterial blood samples were taken for measurement of plasma dobutamine levels.

[4] = Drug levels within the myocardium, tissue core from under the device, swine; assay type: in vivo; details: patch release compared with IV infusion at the same dosage, all tissue depths, FIG. 11
Description: The heart was arrested with a large potassium IV bolus and removed. A core of tissue from under the device was taken for measurement of drug levels within the myocardium.

[5] = intravenous infusion systems; cited from earlier work
[6] = patch delivery, PV loop, FIG. 4
[7] = patch release 1 mcg/kg/min compared with IV infusion at the same dosage, FIG. 3
[8] = patch release compared with intravenous infusion, FIG. 6

systemic vascular resistance ([1]; intravenous infusion 1 mcg/kg/min): excessively decreases | systemic vascular resistance ([1]; patch release 1 mcg/kg/min): only minimal effect | systemic vascular resistance ([2]; patch release, FIG. 8): without significantly reducing | plasma concentration ([3]; intravenous infusion compared with patch release): substantially higher | plasma drug levels ([3]; pericardial (patch) delivery compared with IV delivery): lower | myocardial dobutamine concentration [4]: orders of magnitude higher
SMILES: CC(CCc1ccc(O)cc1)NCCc1ccc(O)c(O)c1 (centres unmarked) [dobutamine]
cardiac work efficiency ([1]; patch 1 mcg/kg/min compared with IV infusion at the same dosage, FIG. 4): more efficient cardiac work | ventricular stroke volume ([1]; patch 1 mcg/kg/min compared with IV infusion at the same dosage, pressure volume loops, FIG. 4): greater ventricular stroke volume | LV pressure during ejection [1, 6]: no increase | diastolic filling [1, 6]: minimal change | end-systolic volume [1, 6]: marked reduction | myocardial stroke work (SW) ([1]; patch delivery, area inside PV loop, FIG. 4): minimal increase | contractility of myocardial tissue (max dP/dt) [1, 7]: greater increase in contractility | duration of the increase in contractility [1, 7]: sustained for a longer period of time | increase in contractility relative to dose [1, 8]: larger increase in contractility with a smaller dose | potency and effect on contractility [1, 8]: more potent and efficacious | time response of increasing contractility ([2]; after pericardial application, FIG. 8): very rapid | stroke work per stroke volume ([2]; patch 0.5 mcg/kg/min compared with IV infusion at the same dosage, FIG. 9): less | myocardial contractility, dose response ([2]; patch release compared with release via catheter in the pericardial sac, FIG. 7): greater increase | cardiac output ([2]; patch release, FIG. 8): increased | contractility ([2]; patch release, FIG. 8): increased | dosage typically required for therapeutic effect on contractility [5]: at least 2 mcg/kg/min

SMILES: C[C@@H]1CC(=O)NN=C1c1ccc(NN=C(C#N)C#N)cc1 [levosimendan]
dosage typically required for therapeutic effect on contractility [5]: ≥ 0.1 µg/kg/min

— patent US8562586B2, “Devices and systems for local delivery of inotropic agents to the epicardium” (Massachusetts Institute of Technology, priority 2008, dated 2013)
